From patent US20080045564A1 (priority 2006, published 2008)

Experiments:
human CYP1A1 = details: due to increased mRNA expression levels; Bapiro et al.; cited from earlier work

Row | SMILES | induction of CYP2B6 by reference inducer (CYP2B6; 1 mM Phenobarbital, each hepatocyte donor) | induction of CYP2B6 activity (statistical significance, summary over three donors) (CYP2B6; hepatocytes) | induction of human CYP1A1 activity (human CYP1A1)
1 | CCC1(c2ccccc2)C(=O)NC(=O)NC1=O [Phenobarbital] | statistically significant amount of induction |  | 
2 | C=C[C@H]1C[N@@]2CC[C@H]1C[C@H]2[C@H](O)c1ccnc2ccc(OC)cc12 [quinine, cinchonan-9-ol, 6′-methoxy-, (8a,9R)-] |  | an inducer | induced
